Patent US12503471B2, “Triazatricycle compounds for the treatment of autoimmune disease” (Hoffmann-La Roche Inc., priority 2019, dated 2025)

Molecular target: T1, human TLR8 (Homo sapiens, UniProt Q9NR97)
T1 construct: host or cells: HEK293 (HEK-Blue hTLR8)
T1 sequence (Q9NR97 27-1041): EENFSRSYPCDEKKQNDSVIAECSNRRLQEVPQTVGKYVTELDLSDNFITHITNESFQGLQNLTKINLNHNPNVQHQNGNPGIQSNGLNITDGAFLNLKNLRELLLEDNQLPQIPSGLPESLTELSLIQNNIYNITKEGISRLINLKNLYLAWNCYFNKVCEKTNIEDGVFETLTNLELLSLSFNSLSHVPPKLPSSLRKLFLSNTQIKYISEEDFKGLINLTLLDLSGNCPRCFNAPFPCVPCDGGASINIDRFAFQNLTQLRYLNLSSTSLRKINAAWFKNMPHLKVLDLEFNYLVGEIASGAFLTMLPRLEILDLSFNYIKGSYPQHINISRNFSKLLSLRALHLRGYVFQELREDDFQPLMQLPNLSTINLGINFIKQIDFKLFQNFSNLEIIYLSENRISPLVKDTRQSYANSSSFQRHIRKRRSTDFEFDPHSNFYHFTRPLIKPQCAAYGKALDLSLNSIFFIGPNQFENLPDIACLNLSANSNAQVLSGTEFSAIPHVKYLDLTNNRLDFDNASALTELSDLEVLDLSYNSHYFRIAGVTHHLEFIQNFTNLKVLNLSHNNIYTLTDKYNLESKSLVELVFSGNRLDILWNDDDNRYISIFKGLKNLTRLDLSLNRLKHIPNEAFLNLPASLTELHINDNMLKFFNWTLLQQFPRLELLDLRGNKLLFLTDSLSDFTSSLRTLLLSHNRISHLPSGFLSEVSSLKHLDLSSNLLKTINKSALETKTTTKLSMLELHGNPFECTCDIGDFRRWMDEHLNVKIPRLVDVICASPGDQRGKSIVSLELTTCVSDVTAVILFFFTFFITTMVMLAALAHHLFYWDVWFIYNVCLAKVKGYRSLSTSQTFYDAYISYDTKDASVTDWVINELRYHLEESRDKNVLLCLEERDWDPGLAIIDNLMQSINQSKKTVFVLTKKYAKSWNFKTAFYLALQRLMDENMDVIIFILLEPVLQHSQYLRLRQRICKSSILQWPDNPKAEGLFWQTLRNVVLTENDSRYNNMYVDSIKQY
Test: HEK293-Blue-hTLR-8 cells assay
Format: cell-based
Conditions: HEK293-Blue-hTLR8 cells, R848 stimulation, 20 hrs, SEAP reporter; read-out: HEK/hTLR8 IC50
Source text: HEK293-Blue-hTLR-8 Cells Assay:
A stable HEK293-Blue-hTLR-8 cell line was purchased from InvivoGen (Cat. #: hkb-htlr8, San Diego, Calif., USA). These cells were originally designed for studying the stimulation of human TLR8 by monitoring the activation of NF-κB. A SEAP (secreted embryonic alkaline phosphatase) reporter gene was placed under the control of the IFN-β minimal promoter fused to five NF-κB and AP-1-binding sites. The SEAP was induced by activating NF-κB and AP-1 via stimulating HEK-Blue hTLR8 cells with TLR8 ligands. Therefore the reporter expression was declined by TLR8 antagonist under the stimulation of a ligand, such as R848, for incubation of 20 hrs. The cell culture supernatant SEAP reporter activity was determined using QUANTI-Blue™ kit (Cat. #: rep-qbl, Invivogen, San Diego, Ca, USA) at a wavelength of 640 nm, a detection medium that turns purple or blue in the presence of alkaline phosphatase.
HEK293-Blue-hTLR8 cells were incubated at a density of 250,000˜450,000 cells/mL in a volume of 170 μL in a 96-well plate in Dulbecco's Modified Eagle's medium (DMEM) containing 4.5 g/L glucose, 50 U/mL penicillin, […], […], 2 mM L-glutamine, 10% (v/v) heat-inactivated fetal bovine serum with addition of 20 μL test compound in a serial dilution in the presence of final DMSO at 1% and 10 μL of 60 uM R848 in above DMEM, perform incubation under 37° C. in a CO2 incubator for 20 hrs. Then 20 μL of the supernatant from each well was incubated with 180 μL Quanti-blue substrate solution at 37° C. for 2 hrs and the absorbance was read at 620-655 nm using a spectrophotometer. The signaling pathway that TLR8 activation leads to downstream NF-κB activation has been widely accepted, and therefore similar reporter assay was modified for evaluating TLR8 antagonist.

Row | SMILES | IC50
1 | C[C@@H]1CN(c2ccc(C#N)c3ncccc23)C[C@@H]2c3ccc(N4CCCNCC4)nc3CN12 [Example 20, 5-[(2S,6R)-11-(1,4-diazepan-1-yl)-6-methyl-4,7,10-triazatricyclo[7.4.0.02,7]trideca-1(9),10,12-trien-4-yl]quinoline-8-carbonitrile] | < 300 pM
2 | [2H]c1ccc2c(N3C[C@@H](C)N4Cc5nc(OC6CCNCC6)ccc5[C@H]4C3)ccc(C#N)c2n1 [Example 24, 2-Deuterio-5-[(2S,6R)-6-methyl-11-(4-piperidyloxy)-4,7,10-triazatricyclo[7.4.0.02,7]trideca-1(9),10,12-trien-4-yl]quinoline-8-carbonitrile] | < 300 pM
3 | [2H]c1ccc2c(N3C[C@@H](C)N4Cc5nc(N6CC[C@H](N)[C@H](OC)C6)ccc5[C@H]4C3)ccc(C#N)c2n1 [Example 13, 5-[(2S,6R)-11-[(3R,4S)-4-amino-3-methoxy-1-piperidyl]-6-methyl-4,7,10-triazatricyclo[7.4.0.02,7]trideca-1(9),10,12-trien-4-yl]-2-deuterio-quinoline-8-carbonitrile] | < 300 pM
4 | [2H]c1ccc2c(N3C[C@@H](C)N4Cc5nc(N6CC[C@@H](N)[C@H](OC)C6)ccc5[C@H]4C3)ccc(C#N)c2n1 [Example 11, 5-[(2S,6R)-11-[(3R,4R)-4-amino-3-methoxy-1-piperidyl]-6-methyl-4,7,10-triazatricyclo[7.4.0.02,7]trideca-1(9),10,12-trien-4-yl]-2-deuterio-quinoline-8-carbonitrile] | < 300 pM
5 | C[C@@H]1CN(c2ccc(C#N)c3ncccc23)C[C@@H]2c3cnc(N4CCNCC4)cc3CN12 [Example 2, 5-[(2S,6R)-6-methyl-11-piperazin-1-yl-4,7,12-triazatricyclo[7.4.0.02,7]trideca-1(9),10,12-trien-4-yl] quinoline-8-carbonitrile] | 400 pM
6 | [2H]c1ccc2c(N3C[C@@H](C)N4Cc5nc(N6CCC7(CC6)CNCCO7)ccc5[C@H]4C3)ccc(C#N)c2n1 [Example 18, 2-Deuterio-5-[(2S,6R)-6-methyl-11-(1-oxa-4,9-diazaspiro[5.5]undecan-9-yl)-4,7,10-triazatricyclo[7.4.0.02,7]trideca-1(9),10,12-trien-4-yl]quinoline-8-carbonitrile] | < 300 pM
7 | [2H]c1ccc2c(N3C[C@@H](C)N4Cc5nc(N6CCC(C)(N)CC6)ccc5[C@H]4C3)ccc(C#N)c2n1 [Example 19, 5-[(2S,6R)-11-(4-amino-4-methyl-1-piperidyl)-6-methyl-4,7,10-triazatricyclo[7.4.0.02,7]trideca-1(9),10,12-trien-4-yl]-2-deuterio-quinoline-8-carbonitrile] | < 300 pM
8 | [2H]c1ccc2c(N3C[C@@H](C)N4Cc5nc(N6CCC7(CNC7)C6)ccc5[C@H]4C3)ccc(C#N)c2n1 [Example 9, 2-Deuterio-5-[(2S,6R)-11-(2,6-diazaspiro[3.4]octan-6-yl)-6-methyl-4,7,10-triazatricyclo[7.4.0.02,7]trideca-1(9),10,12-trien-4-yl]quinoline-8-carbonitrile] | 700 pM
9 | C[C@@H]1CN(c2ccc(C#N)c3ncccc23)C[C@@H]2c3ccc(N4CC5CNCC(C4)O5)nc3CN12 [Example 6, 5-[(2S,6R)-6-methyl-11-(9-oxa-3,7-diazabicyclo[3.3.1]nonan-3-yl)-4,7,10-triazatricyclo[7.4.0.02,7]trideca-1(9),10,12-trien-4-yl]quinoline-8-carbonitrile] | 2300 pM
10 | C[C@@H]1CN(c2ccc(C#N)n3nccc23)C[C@@H]2c3ccc(N4C[C@@H]5C[C@H]4CN5)nc3CN12 [Example 21, 4-[(2S,6R)-11-[(1S,4S)-2,5-diazabicyclo[2.2.1]heptan-2-yl]-6-methyl-4,7,10-triazatricyclo[7.4.0.02,7]trideca-1(9),10,12-trien-4-yl]pyrazolo[1,5-a]pyridine-7-carbonitrile] | 3600 pM
11 | C[C@@H]1CN(c2ccc(C#N)c3ncccc23)C[C@@H]2c3ccc(N4CCNCC4)nc3CN12 [Example 5, 5-[(2S,6R)-6-methyl-11-piperazin-1-yl-4,7,10-triazatricyclo[7.4.0.02,7]trideca-1(9),10,12-trien-4-yl]quinoline-8-carbonitrile] | < 300 pM
12 | [2H]c1ccc2c(N3C[C@@H](C)N4Cc5nc(N6CC[C@](C)(N)C6)ccc5[C@H]4C3)ccc(C#N)c2n1 [Example 8, 5-[(2S,6R)-11-[(3S)-3-amino-3-methyl-pyrrolidin-1-yl]-6-methyl-4,7,10-triazatricyclo[7.4.0.02,7]trideca-1(9),10,12-trien-4-yl]-2-deuterio-quinoline-8-carbonitrile] | < 300 pM
13 | N#Cc1ccc(N2CCN3Cc4nc(N5CCNCC5)ccc4[C@@H]3C2)c2cccnc12 [Example 3A, 5-[(2R)-11-piperazin-1-yl-4,7,10-triazatricyclo[7.4.0.02,7]trideca-1(9),10,12-trien-4-yl]quinoline-8-carbonitrile] | 500 pM
14 | [2H]c1ccc2c(N3C[C@@H](C)N4Cc5nc(N6C[C@@H]7C[C@H]6CN7)ccc5[C@H]4C3)ccc(C#N)c2n1 [Example 16, 2-Deuterio-5-[(2S,6R)-11-[(1S,4S)-2,5-diazabicyclo[2.2.1]heptan-2-yl]-6-methyl-4,7,10-triazatricyclo[7.4.0.02,7]trideca-1(9),10,12-trien-4-yl]quinoline-8-carbonitrile] | 400 pM
15 | [2H]c1ccc2c(N3C[C@@H](C)N4Cc5nc(N6CC[C@H](N)[C@@H](OC)C6)ccc5[C@H]4C3)ccc(C#N)c2n1 [Example 12, 5-[(2S,6R)-11-[(3S,4S)-4-amino-3-methoxy-1-piperidyl]-6-methyl-4,7,10-triazatricyclo[7.4.0.02,7]trideca-1(9),10,12-trien-4-yl]-2-deuterio-quinoline-8-carbonitrile] | < 300 pM
16 | [2H]c1ccc2c(N3C[C@@H](C)N4Cc5nc(N6CC[C@@](C)(N)C6)ccc5[C@H]4C3)ccc(C#N)c2n1 [Example 7, 5-[(2S,6R)-11-[(3R)-3-amino-3-methyl-pyrrolidin-1-yl]-6-methyl-4,7,10-triazatricyclo[7.4.0.02,7]trideca-1(9),10,12-trien-4-yl]-2-deuterio-quinoline-8-carbonitrile] | < 300 pM
17 | [2H]c1ccc2c(N3C[C@@H](C)N4Cc5nc(N6C[C@H]7C[C@@H]6CN7)ccc5[C@H]4C3)ccc(C#N)c2n1 [Example 17, 2-Deuterio-5-[(2S,6R)-11-[(1R,4R)-2,5-diazabicyclo[2.2.1]heptan-2-yl]-6-methyl-4,7,10-triazatricyclo[7.4.0.02,7]trideca-1(9),10,12-trien-4-yl]quinoline-8-carbonitrile] | < 300 pM
18 | [2H]c1ccc2c(N3C[C@@H](C)N4Cc5nc(N6CC[C@H](OC)[C@@H](N)C6)ccc5[C@H]4C3)ccc(C#N)c2n1 [Example 14, 5-[(2S,6R)-11-[(3S,4S)-3-amino-4-methoxy-1-piperidyl]-6-methyl-4,7,10-triazatricyclo[7.4.0.02,7]trideca-1(9),10,12-trien-4-yl]-2-deuterio-quinoline-8-carbonitrile] | < 300 pM
19 | [2H]c1ccc2c(N3C[C@@H](C)N4Cc5nc(C6CCNCC6)ccc5[C@H]4C3)ccc(C#N)c2n1 [Example 23, 2-Deuterio-5-[(2S,6R)-6-methyl-11-(4-piperidyl)-4,7,10-triazatricyclo[7.4.0.02,7]trideca-1(9),10,12-trien-4-yl]quinoline-8-carbonitrile] | 300 pM
